Data set [1] concerns HeLa human cervical carcinoma cells (CCL-2). Put plainly: cellular potency in HeLa cells. The data set is classed as cell-based. The conditions noted are these: read-out: IC50 value (cellular potency).
Data set [2] in a line: logD. The data set is classed as physicochemical. The conditions noted are these: relative to parent atuveciclib.
Data set [3] can be described thus: kinetic solubility. The data set is classed as physicochemical. The conditions noted are these: compared to atuveciclib.
For data set [4], the system named is Madin-Darby canine kidney (MDCK) cells. Description: permeability in MDCK cells. The class given is in vitro ADME. The conditions noted are these: compared to the parent compound.

These results are taken from PMC12462901 (Journal of the American Chemical Society, 2025).

Where two headings read alike, the source gives them in different places.

As a reminder, the IC50 is the concentration that inhibits the measured activity by half. `COc1cc(F)ccc1-c1ncnc(Nc2cccc(C[S@@](C)(=O)=NC3CCC3)c2)n1` [Compound 57]: in data set [1] (HeLa human cervical carcinoma cells (CCL-2)), the concentration for half-maximal inhibition (IC50) is 700 nM. In addition, in data set [2], the logD result is on record as “increase in logD”. The kinetic solubility entry in data set [3] is on record as “notable improvement compared to atuveciclib”. Further, the permeability entry in data set [4] is “enhanced permeability compared to the parent compound”.

For `COc1cc(F)ccc1-c1ncnc(Nc2cccc(C[S@](C)(=N)=O)c2)n1` [atuveciclib, reference compound], the IC50 in data set [1] (Homo sapiens, HeLa) came to 300 nM.
